Measurements taken from US20080280835A1, “Novel Use of Peptide Compounds For Treating Muscle Pain” (priority 2005, published 2008).

Columns and labels:
[1] = system: Wistar rats; test: Tactile allodynia (von Frey filaments) in iodoacetate rat model of osteoarthritic pain; type: in vivo
[2] = system: Sprague Dawley rats; test: TNF-induced muscle pressure hyperalgesia, gastrocnemius muscle (Randall-Selitto analgesimeter); type: in vivo, rat; conditions: for Maximal Possible Effect (MPE) versus vehicle, muscle pressure: FIG. 2; for reversal of muscular mechanical hyperalgesia (withdrawal thresholds to pressure): 18 hours after TNF 1 μg into gastrocnemius, 30 to 60 minutes after drug; for full reversal of the muscle hyperalgesia: doses tested i.p.: pregabalin 30 and 100 mg/kg, gabapentin 100 mg/kg
Procedure: (§1) Intramuscular injection of tumor necrosis factor-alpha (TNF) was used as a model of muscular mechanical hyperalgesia, which occurs in the human fibromyalgia, myofascial pain syndrome, back pain or osteoarthritis.
(§2) Mechanical withdrawal thresholds to muscle pressure were measured with an analgesimeter exerting pressure on the gastrocnemius muscle previously injected with TNF. Forelimb grip strength was measured with a digital grip force meter after TNF injection into the biceps brachii muscles.
(§3) Adult male Sprague Dawley rats with a body weight of 250 g to 300 g were used (supplier: Charles River Sulzfeld Germany). Animals were group-housed (3 animals per cage) and maintained in a room with controlled temperature (21-22° C.) and a reversed light-dark cycle (12 h/12 h) with food and water available ad libitum. All experiments were approved by the Bavarian State animal experimentation committee and carried out in accordance with its regulations.
(§4) Recombinant rat tumor necrosis factor alpha (herein referred to as TNF) was obtained from R&D Systems, Minneapolis, Minn., USA. TNF was diluted in 0.9% NaCl and used in a concentration of 1 μg in 50 μl. Injections were performed in short halothane narcosis with a 30 g needle bilaterally into the gastrocnemius or into the biceps brachii muscle. All rats were used to the behavioral tests before injections and baseline values were recorded over three test days.
Mechanical withdrawal thresholds to muscle pressure were measured with an analgesimeter (Ugo Basile, Comerio, Italy). The rat is allowed to crawl into a sock which helps the rat to relax. The hind limbs were positioned such that an increasing pressure could be applied onto the gastrocnemius muscle (maximum 250 g). The pressure needed to elicit withdrawal was recorded. Means of 3 trials for each hind limb were calculated (interstimulus interval of >30 sec). Only animals with a significant TNF effect were included for further analysis.
Rats were injected with TNF into the M. gastrocnemius at […]. 18 hours later, rats were tested for pressure hyperalgesia pre- and post-application of the drugs. Rats were tested for pressure hyperalgesia 30 to 60 minutes after drug administration.
(§5) […] Injection volume of i.p. injections was 0.5 ml.
(§6) Data are shown in graphs displaying means and SEMs. Pre- and post-treatment data were compared using ANOVA (Analysis Of Variance) and a Tukey post hoc test. Means of treatment groups were compared using a one-way ANOVA and Dunnett's post hoc Test. Maximal possible effects (MPE) were calculated for all types of treatment.

[3] = system: Wistar rats; test: Mechanical hyperalgesia (Randall-Selitto paw pressure) in iodoacetate rat model of osteoarthritic pain; type: in vivo; conditions: for paw pressure withdrawal threshold compared to iodoacetate/vehicle treated animals: day 3 after iodoacetate
[4] = system: Sprague Dawley rats; test: TNF-induced reduction of forelimb grip strength, biceps brachii muscle; type: in vivo, rat; conditions: for reversal of the TNF induced reduction of grip strength: 6 hours after TNF 1 μg into biceps brachii, 30 to 60 minutes after drug; for MPE versus vehicle, grip strength: FIG. 4; for dose at which the effect of TNF on grip strength is reversed / grip strength improved: i.p., grip strength test
Procedure: as §1, §2, §3, §4
Grip strength of the forelimbs was tested with a digital grip force meter (DFIS series, Chatillon, Greensboro, N.C., USA). The rat was positioned to grab the grid with the forelimbs and was gently pulled so that the grip strength could be recorded. Means of three trials were calculated. The effect of the TNF treatment was calculated for each animal separately and only animals with a significant TNF effect were included for further analysis.
Rats were injected with TNF into the M. biceps brachii at 8 am. 6 hours later, grip strength of the forelimbs was tested with a digital grip force meter. Drugs were applied, and grip strength was again tested after 30 to 60 minutes.
as §5, §6

[5] = 30 mg/kg p.o., day 7 after iodoacetate
[6] = 3 mg/kg s.c., day 7 after iodoacetate

COC[C@@H](NC(C)=O)C(=O)NCc1ccccc1 [lacosamide, (R)-2-acetamido-N-benzyl-3-methoxy-propionamide]
improvement of tactile allodynia ([1]; 30 mg/kg p.o., day 3 after iodoacetate, 60 minutes after drug): improved | improvement of tactile allodynia [1, 5]: improved | improvement of tactile allodynia ([1]; lower doses (3 and 10 mg/kg p.o.)): showed a trend for such improvement | Maximal Possible Effect (MPE) versus vehicle, muscle pressure ([2]; 10 mg/kg i.p.): significantly different from vehicle | reversal of muscular mechanical hyperalgesia (withdrawal thresholds to pressure) ([2]; 30 mg/kg i.p.): complete reversal | Maximal Possible Effect (MPE) versus vehicle, muscle pressure ([2]; 30 mg/kg i.p.): significantly different from vehicle | muscle hyperalgesia induced by TNF injection in the paw pressure test, dose dependence ([2]; 3, 10, 30 mg/kg i.p.): dose dependently improves | paw pressure withdrawal threshold compared to iodoacetate/vehicle treated animals ([3]; 3 mg/kg p.o.): increase in paw pressure withdrawal threshold | mechanical hyperalgesia ([3]; 3 mg/kg p.o., day 7 after iodoacetate): reduced mechanical hyperalgesia | mechanical hyperalgesia ([3]; 10 mg/kg p.o., day 7 after iodoacetate): reduced mechanical hyperalgesia | mechanical hyperalgesia ([3]; 10 mg/kg p.o., day 14 after iodoacetate): did not show a statistically significant effect | mechanical hyperalgesia [3, 5]: reduced mechanical hyperalgesia | reversal of the TNF induced reduction of grip strength ([4]; 10 mg/kg i.p.): significant reversal | MPE versus vehicle, grip strength ([4]; 10 mg/kg i.p.): significantly different from vehicle | reversal of the TNF induced reduction of grip strength ([4]; 30 mg/kg i.p.): significant reversal | MPE versus vehicle, grip strength ([4]; 30 mg/kg i.p.): significantly different from vehicle | dose at which the effect of TNF on grip strength is reversed / grip strength improved [4]: 10 mg/kg

O=C(O)Cc1ccccc1Nc1c(Cl)cccc1Cl [diclofenac]
paw pressure withdrawal threshold compared to iodoacetate/vehicle treated animals ([3]; 30 mg/kg s.c.): increase in paw pressure withdrawal threshold | mechanical hyperalgesia ([3]; 30 mg/kg s.c., day 7 after iodoacetate): reduced mechanical hyperalgesia

NCC1(CC(=O)O)CCCCC1 [gabapentin]
reversal of muscular mechanical hyperalgesia (withdrawal thresholds to pressure) ([2]; 100 mg/kg i.p.): significant reversal | Maximal Possible Effect (MPE) versus vehicle, muscle pressure ([2]; 100 mg/kg i.p.): significantly different from vehicle | full reversal of the muscle hyperalgesia [2]: Neither pregabalin nor gabapentin lead to a full reversal | reversal of the TNF induced reduction of grip strength ([4]; 100 mg/kg i.p.): significant reversal | MPE versus vehicle, grip strength ([4]; 100 mg/kg i.p.): significantly different from vehicle | dose at which the effect of TNF on grip strength is reversed / grip strength improved [4]: 100 mg/kg

CN1CC[C@]23c4c5ccc(O)c4O[C@H]2[C@@H](O)C=C[C@H]3[C@H]1C5 [morphine]
improvement of tactile allodynia ([1]; 3 mg/kg s.c., day 3 after iodoacetate): improved | improvement of tactile allodynia [1, 6]: improved | paw pressure withdrawal threshold compared to iodoacetate/vehicle treated animals ([3]; 3 mg/kg s.c.): increase in paw pressure withdrawal threshold | mechanical hyperalgesia [3, 6]: reduced mechanical hyperalgesia

Cc1c(N(C)CS(=O)(=O)O)c(=O)n(-c2ccccc2)n1C [metamizol]
reversal of muscular mechanical hyperalgesia (withdrawal thresholds to pressure) ([2]; 2 mg/kg i.p.): complete reversal | Maximal Possible Effect (MPE) versus vehicle, muscle pressure ([2]; 2 mg/kg i.p.): significantly different from vehicle | reversal of the TNF induced reduction of grip strength ([4]; 2 mg/kg i.p.): significant reversal | MPE versus vehicle, grip strength ([4]; 2 mg/kg i.p.): significantly different from vehicle

CC(C)C[C@H](CN)CC(=O)O [pregabalin]
reversal of muscular mechanical hyperalgesia (withdrawal thresholds to pressure) ([2]; 30 mg/kg i.p.): significant reversal | Maximal Possible Effect (MPE) versus vehicle, muscle pressure ([2]; 30 mg/kg i.p.): significantly different from vehicle | reversal of muscular mechanical hyperalgesia (withdrawal thresholds to pressure) ([2]; 100 mg/kg i.p.): significant reversal | Maximal Possible Effect (MPE) versus vehicle, muscle pressure ([2]; 100 mg/kg i.p.): significantly different from vehicle | full reversal of the muscle hyperalgesia [2]: Neither pregabalin nor gabapentin lead to a full reversal | reversal of the TNF induced reduction of grip strength ([4]; 100 mg/kg i.p.): significant reversal | MPE versus vehicle, grip strength ([4]; 100 mg/kg i.p.): significantly different from vehicle | dose at which the effect of TNF on grip strength is reversed / grip strength improved [4]: 100 mg/kg
